Data reported in patent publication US20130072427A1, “GPR 119 MODULATORS” (Pfizer Inc., priority 2009, published 2013).
pEC50: −log10 of the molar value. Several values for one entry are separate records, joined by “and”; a condition that tells them apart may be missing. Equal entries are not always repeated.

Tests used:
human GPR119 [1] = biological target: T1, human GPR119 (Homo sapiens, UniProt Q8TDV5); test: cAMP functional assay (HTRF, hGPR119 HEK-CRE beta-lactamase cells); format: cell-based; conditions: for pEC50: hGPR119 HEK-CRE beta-lactamase cells, HTRF cAMP, 30 minutes, read-out: Human cAMP Functional EC50
T1 construct: host or cells: HEK293-CRE beta-lactamase cells
T1 sequence (Q8TDV5 1-335): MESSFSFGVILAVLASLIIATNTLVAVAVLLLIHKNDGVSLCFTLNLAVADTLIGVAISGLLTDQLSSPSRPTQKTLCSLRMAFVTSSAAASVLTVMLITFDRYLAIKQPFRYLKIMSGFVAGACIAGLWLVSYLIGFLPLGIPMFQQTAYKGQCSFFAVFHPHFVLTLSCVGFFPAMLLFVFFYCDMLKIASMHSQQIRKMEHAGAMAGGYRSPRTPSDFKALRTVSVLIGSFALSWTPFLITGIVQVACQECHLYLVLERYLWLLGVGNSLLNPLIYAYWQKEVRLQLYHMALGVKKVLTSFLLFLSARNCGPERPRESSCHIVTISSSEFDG
Procedure: GPR119 agonist activity was also determined with a cell-based assay utilizing an HTRF (Homogeneous Time-Resolved Fluorescence) cAMP detection kit (cAMP dynamic 2 Assay Kit; Cis Bio cat #62AM4PEC) that measures cAMP levels in the cell. The method is a competitive immunoassay between native cAMP produced by the cells and the cAMP labeled with the dye d2. The tracer binding is visualized by a Mab anti-cAMP labeled with Cryptate. The specific signal (i.e. energy transfer) is inversely proportional to the concentration of cAMP in either standard or sample.
Specifically, hGPR119HEK-CRE beta-lactamase cells (Invitrogen 2.5×10^7/ml; the same cell line used in the beta-lactamase assay described above) are removed from cryopreservation and diluted in growth medium (Dulbecco's modified Eagle medium high glucose (DMEM; Gibco Cat #11995-065), 1% charcoal dextran treated fetal bovine serum (CD serum; HyClone Cat #SH30068.03), 1×MEM Nonessential amino acids (Gibco Cat #15630-080) and 25 mM HEPES pH 7.0 (Gibco Cat #15630-080)). The cell concentration was adjusted to 1.5×10^5 cells/ml and 30 mls of this suspension was added to a T-175 flask and incubated at 37 degrees Celsius in a humidified environment in 5% carbon dioxide. After 16 hours (overnight), the cells were removed from the T-175 flask (by rapping the side of the flask), centrifuged at 800×g and then re-suspended in assay medium (1×HBSS+CaCl2+MgCl2 (Gibco Cat #14025-092) and 25 mM HEPES pH 7.0 (Gibco Cat #15630-080)). The cell concentration was adjusted to 6.25×10^5 cells/ml with assay medium and 8 μl of this cell suspension (5000 cells) was added to each well of a white Greiner 384-well, low-volume assay plate (VWR cat #82051-458).
Varying concentrations of each compound to be tested were diluted in assay buffer containing 3-isobutyl-1-methylxanthin (IBMX; Sigma cat #15879) and added to the assay plate wells in a volume of 2 microL (final IBMX concentration was 400 microM and final DMSO concentration was 0.58%). Following 30 minutes incubation at room temperature, 5 microL of labeled d2 cAMP and 5 microL of anti-cAMP antibody (both diluted 1:20 in cell lysis buffer; as described in the manufacturers assay protocol) were added to each well of the assay plate. The plates were then incubated at room temperature and after 60 minutes, changes in the HTRF signal were read with an Envision 2104 multilabel plate reader using excitation of 330 nm and emissions of 615 and 665 nm. Raw data were converted to nM cAMP by interpolation from a cAMP standard curve (as described in the manufacturer's assay protocol) and EC50 determinations were made from an agonist-response curves analyzed with a curve fitting program using a 4-paramter logistic dose response equation.

human GPR119 [2] = biological target: T2, human GPR119 (Homo sapiens, UniProt Q8TDV5); test: Beta-arrestin functional assay (DiscoverX PathHunter U2OS hGPR119 β-arrestin cells); format: cell-based; parameters: Emax: dose or concentration left out as unconfirmed; conditions: one line per run; for pEC50: U2OS hGPR119 β-arrestin cells, 90 minute incubation, read-out: Human B-arrestin Functional EC50; for Emax: U2OS, percent of maximal activity relative to standard GPR119 agonist (WO2005121121) at 10 microM, read-out: Intrinsic Activity* (%) (B-arrestin)
T2 construct: host or cells: U2OS
Procedure: GPR119 agonist activity was also determined with a cell-based assay utilizing DiscoverX PathHunter β-arrestin cell assay technology and their U2OS hGPR119 β-arrestin cell line (DiscoverX Cat #93-0356C3). In this assay, agonist activation is determined by measuring agonist-induced interaction of β-arrestin with activated GPR119. A small, 42 amino acid enzyme fragment, called ProLink was appended to the C-terminus of GPR119. Arrestin was fused to the larger enzyme fragment, termed EA (Enzyme Acceptor). Activation of GPR119 stimulates binding of arrestin and forces the complementation of the two enzyme fragments, resulting in formation of a functional β-galactosidase enzyme capable of hydrolyzing substrate and generating a chemiluminescent signal.
Specifically, U2OS hGPR119 β-arrestin cells (DiscoverX 1×10^7/ml) are removed from cryopreservation and diluted in growth medium (Minimum essential medium (MEM; Gibco Cat #11095-080), 10% heat inactivated fetal bovine serum (HIFBS; Sigma Cat #F4135-100), 100 mM sodium pyruvate (Sigma Cat #S8636), 500 microg/mL G418 (Sigma Cat #G8168) and 250 microg/mL Hygromycin B (Invitrogen Cat #10687-010). The cell concentration was adjusted to 1.66×10^5 cells/ml and 30 mls of this suspension was added to a T-175 flask and incubated at 37 degrees Celsius in a humidified environment in 5% carbon dioxide. After 48 hours, the cells were removed from the T-175 flask with enzyme-free cell dissociation buffer (Gibco cat #13151-014), centrifuged at 800×g and then re-suspended in plating medium (Opti-MEM I (Invitrogen/BRL Cat #31985-070) and 2% charcoal dextran treated fetal bovine serum (CD serum; HyClone Cat #SH30068.03). The cell concentration was adjusted to 2.5×10^5 cells/ml with plating medium and 10 microL of this cell suspension (2500 cells) was added to each well of a white Greiner 384-well low volume assay plate (VWR cat #82051-458) and the plates were incubated at 37 degrees Celsius in a humidified environment in 5% carbon dioxide.
After 16 hours (overnight) the assay plates were removed from the incubator and varying concentrations of each compound to be tested (diluted in assay buffer (1×HBSS+CaCl2+MgCl2 (Gibco Cat #14025-092), 20 mM HEPES pH 7.0 (Gibco Cat #15630-080) and 0.1% BSA (Sigma Cat #A9576)) were added to the assay plate wells in a volume of 2.5 microL (final DMSO concentration was 0.5%). After a 90 minute incubation at 37 degrees Celsius in a humidified environment in 5% carbon dioxide, 7.5 microL of Galacton Star β-galactosidase substrate (PathHunter Detection Kit (DiscoveRx Cat #93-0001); prepared as described in the manufacturers assay protocol) was added to each well of the assay plate. The plates were incubated at room temperature and after 60 minutes, changes in the luminescence were read with an Envision 2104 multilabel plate reader at 0.1 seconds per well. EC50 determinations were made from an agonist-response curves analyzed with a curve fitting program using a 4-parameter logistic dose response equation.
T2 sequence (P32121 whole entry partner, one chain of several): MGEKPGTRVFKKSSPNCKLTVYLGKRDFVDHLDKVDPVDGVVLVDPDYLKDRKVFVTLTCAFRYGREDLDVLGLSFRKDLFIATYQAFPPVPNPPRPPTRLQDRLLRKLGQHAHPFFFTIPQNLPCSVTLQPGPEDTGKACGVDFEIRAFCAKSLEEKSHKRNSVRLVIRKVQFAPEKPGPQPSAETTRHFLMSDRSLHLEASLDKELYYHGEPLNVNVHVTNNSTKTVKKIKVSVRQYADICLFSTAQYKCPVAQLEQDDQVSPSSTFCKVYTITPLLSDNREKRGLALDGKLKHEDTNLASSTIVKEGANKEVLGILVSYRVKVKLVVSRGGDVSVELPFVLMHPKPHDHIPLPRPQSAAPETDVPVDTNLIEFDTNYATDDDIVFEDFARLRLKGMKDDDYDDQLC

[3] = percent of maximal activity relative to standard GPR119 agonist (WO2005121121) at 10 μM, one line per run, read-out: Intrinsic Activity* (%) (cAMP)

| EC50 (human GPR119 [1]; **the curve was extrapolated to 100% to calculate an EC50, read-out: Human cAMP Functional EC50 (nM), curve extrapolated to 100%) [nM] | Emax (human GPR119 [1]; **the curve was extrapolated to 100% to calculate an EC50, read-out: Intrinsic Activity* (%) (cAMP), curve extrapolated to 100%) | Emax (human GPR119 [1]; [3]) [%] | pEC50 (human GPR119 [2]) | Emax (human GPR119 [2]) [%] | pEC50 (human GPR119 [1]; one line per run) | SMILES |
| --- | --- | --- | --- | --- | --- | --- |
| 6250 | 100 | 51 |  |  |  | CC(C)OC(=O)N1CCC(Oc2ncnc(N3Cc4cnn(C)c4C3)c2C#N)CC1 [Example 3, Isopropyyl 4-{[5-cyano-6-(1-methyl-4,6-dihydropyrrolo[3,4-c]pyrazol-5(1H)-yl)pyrimidin-4-yl]oxy}piperidine-1-carboxylate] |
|  |  | 80 | 7.64 | 77 | 7.77 and 7.85 and 7.92 | Cc1c(O[C@H]2CCN(C(=O)OC3(C)CC3)C[C@H]2F)ncnc1N1Cc2cnn(C)c2C1 (racemic) [Example 7, 1-Methylcyclopropyyl (3,4-cis)-3-fluoro-4-{[5-methyl-6-(1-methyl-4,6-dihydropyrrolo[3,4-c]pyrazol-5(1H)-yl)pyrimidin-4-yl]oxy}piperidine-1-carboxylate (racemic)] |
|  |  | 72 | 7.25 | 70 | 7.19 and 7.24 and 7.11 | Cc1c(O[C@H]2[C@@H]3COC[C@H]2CN(C(=O)OC(C)(C)C)C3)ncnc1N1Cc2cnn(C)c2C1 [Example 9, tert-Butyl (9-anti)-9-{[5-methyl-6-(1-methyl-4,6-dihydropyrrolo[3,4-c]pyrazol-5(1H)-yl)pyrimidin-4-yl]oxy}-3-oxa-7-azabicyclo[3.3.1]nonane-7-carboxylate] |
|  |  | 45 |  |  | 6.53 and 6.77 and 6.87 and 6.36 | Cc1c(OC2CCN(C(=O)OC(C)C)CC2)ncnc1N1Cc2cnn(C)c2C1 [Example 2, Isopropyyl 4-{[5-methyl-6-(1-methyl-4,6-dihydropyrrolo[3,4-c]pyrazol-5(1H)-yl)pyrimidin-4-yl]oxy}piperidine-1-carboxylate] |
|  |  | 60 | 7.72 | 67 | 7.41 and 7.46 and 6.88 and 6.54 | Cc1c(O[C@H]2CCN(C(=O)OC(C)(C)C)C[C@H]2F)ncnc1N1Cc2cnn(C)c2C1 (racemic) [Example 6, tert-Butyl (3,4-cis)-3-fluoro-4-{[5-methyl-6-(1-methyl-4,6-dihydropyrrolo[3,4-c]pyrazol-5(1H)-yl)pyrimidin-4-yl]oxy}piperidine-1-carboxylate (racemic)] |
|  |  |  | 7.09 and 6.12 |  | 6.74 and 7.11 and 7.07 | Cc1c(O[C@H]2CCN(C(=O)OC(C)(C)C)C[C@@H]2F)ncnc1N1Cc2cnn(C)c2C1 (racemic) [Example 8, tert-Butyl (3,4-trans)-3-fluoro-4-{[5-methyl-6-(1-methyl-4,6-dihydropyrrolo[3,4-c]pyrazol-5(1H)-yl)pyrimidin-4-yl]oxy}piperidine-1-carboxylate (racemic)] |
